Laboratory results reported in US5447942A, “N-derivatives of (phenylethyl-β-ol) amine, a process for their preparation and pharamaceutical compositions containing the same” (Societe de Conseils de Recherches et d'Applications …, priority 1992, dated 1995).
Where two headings read alike, the source gives them in different places.

Experiments:
[1] = target: β adrenoceptors; assay: radioligand binding studies in lung membrane (Table A, binding affinity)
Description: The results are summarised in Table A. Generally, the activity is better for the trans than the cis isomer.

[2] = system: acetylcholine induced bronchoconstriction; assay: inhibition of acetylcholine induced bronchoconstriction, Konzett and Rossler method (Table B); type: in vivo, Male Hartley Guinea Pigs; details: IV; for inhibition in vivo at 4.6 µmol/kg / inhibition in vivo at 0.13 µmol/kg / inhibition in vivo at 0.42 µmol/kg: Cavia porcellus
Method: Male Hartley Guinea Pigs (450-500 g) were anaesthetised with ethyl carbamate and prepared for recording bronchoconstriction according to Konzett and Rossler method (Naunym Schmiedebergers Arch. Exp. Path. Pharmakol (1940) 195, 71). To abolish spontaneous respiration, an injection IV of vecuronium bromide (2 mg/kg) was made. Bronchoconstriction was induced by IV injection of Acetylcholine and the animals received one dose of β agonist compound (IV) 5 minutes later.

[3] = target: α, receptor; assay: binding α receptor
[4] = system: isolated aorta contraction induced by phenylephrine; assay: inhibition of isolated aorta contraction induced by phenylephrine

Ki [1]	Ki [3]	Structure (SMILES)	bronchoconstriction protection, duration of action ([2]; 4.6 μmol/kg)	inhibition in vivo at 4.6 µmol/kg ([2]; 5 min, 4.6 μmol/kg, 5 mn, read-out: bronchoconstriction protection, score 5 mn)	inhibition in vivo at 4.6 µmol/kg ([2]; 0.25 h, 4.6 μmol/kg, 15 mn, read-out: bronchoconstriction protection, score 15 mn)	inhibition in vivo at 4.6 µmol/kg ([2]; 0.5 h, 4.6 μmol/kg, 30 mn, read-out: bronchoconstriction protection, score 30 mn)	pA2, inhibitor of isolated aorta contraction induced by phenylephrine [4]	bronchoconstriction protection, duration of action ([2]; 0.13 μmol/kg)	bronchoconstriction protection, duration of action ([2]; 0.42 μmol/kg)	inhibition in vivo at 0.13 µmol/kg ([2]; 5 min, 0.13 μmol/kg, 5 mn, read-out: bronchoconstriction protection, score 5 mn)	inhibition in vivo at 0.42 µmol/kg ([2]; 5 min, 0.42 μmol/kg, 5 mn, read-out: bronchoconstriction protection, score 5 mn)	inhibition in vivo at 0.13 µmol/kg ([2]; 0.25 h, 0.13 μmol/kg, 15 mn, read-out: bronchoconstriction protection, score 15 mn)	inhibition in vivo at 0.42 µmol/kg ([2]; 0.25 h, 0.42 μmol/kg, 15 mn, read-out: bronchoconstriction protection, score 15 mn)	inhibition in vivo at 0.13 µmol/kg ([2]; 0.5 h, 0.13 μmol/kg, 30 mn, read-out: bronchoconstriction protection, score 30 mn)	inhibition in vivo at 0.42 µmol/kg ([2]; 0.5 h, 0.42 μmol/kg, 30 mn, read-out: bronchoconstriction protection, score 30 mn)
410 nM	61 nM	COc1cc([C@H]2CC[C@@H](CNCC(O)c3ccc(O)c(CO)c3)O2)cc(OC)c1OC (relative stereo) [Example 2 (cis), 2-(3',4',5'-trimethoxyphenyl)-5-[N-[β-(3'-hydroxymethyl-4'-hydroxy-phenyl)-β-hydroxy-ethyl]-aminomethyl]-tetrahydrofuran]	5 mn	20 to 50%	< 20%	< 20%	7.75	–	–	–	–	–	–	–	–
2500 nM	–	CC(C)(C)NCC(O)c1ccc(O)c(CO)c1 (stereo not shown) [Salbutamol, reference compound]	–	–	–	–	–	10 mn	30 mn	> 75%	> 75%	< 20%	> 75%	< 20%	< 20%
